≈ marks a conversion by molar mass, not a printed value.
Assays:
Escherichia coli [1] = assay: Antimicrobial activity against Escherichia coli ATCC 25922 at 1 ug/ml after 24 hrs by agar diffusion method; type: functional; conditions: ATCC 25922, 24 h, read-out: DIZ
Bacillus subtilis [2] = assay: Antimicrobial activity against Bacillus subtilis ATCC 6633 at 1 ug/ml after 24 hrs by agar diffusion method; type: functional; conditions: ATCC 6633, 24 h, read-out: DIZ
HEK-293T = assay: Cytotoxicity against human HEK293T cells after 72 hrs by MTT assay; type: cell-based
Salmonella enterica [3] = assay: Antimicrobial activity against Salmonella enterica ATCC 14028 at 1 ug/ml after 24 hrs by agar diffusion method; type: functional; conditions: ATCC 14028, 24 h, read-out: DIZ
Escherichia coli [4] = assay: Antimicrobial activity against 10^7 CFU/ml Escherichia coli ATCC 25922 after 22 hrs by serial microdilution method; type: functional; conditions: ATCC 25922, 22 h
Salmonella enterica [5] = assay: Antimicrobial activity against 10^7 CFU/ml Salmonella enterica ATCC 14028 after 22 hrs by serial microdilution method; type: functional; conditions: ATCC 14028, 22 h
Bacillus subtilis [6] = assay: Antimicrobial activity against 10^4 CFU/ml Bacillus subtilis ATCC 6633 after 22 hrs by serial microdilution method; type: functional; conditions: ATCC 6633, 22 h
MEF = assay: Cytotoxicity against mouse MEF cells after 72 hrs by MTT assay; type: cell-based
Pseudomonas aeruginosa [7] = assay: Antimicrobial activity against 10^4 CFU/ml Pseudomonas aeruginosa ATCC 9027 after 22 hrs by serial microdilution method; type: functional; conditions: ATCC 9027, 22 h
Candida albicans [8] = assay: Antimicrobial activity against 10^7 CFU/ml Candida albicans ATCC 32354 after 22 hrs by serial microdilution method; type: functional; conditions: ATCC 32354, 22 h
Bacillus subtilis [9] = assay: Antimicrobial activity against 10^7 CFU/ml Bacillus subtilis ATCC 6633 after 22 hrs by serial microdilution method; type: functional; conditions: ATCC 6633, 22 h
Escherichia coli [10] = assay: Antimicrobial activity against 10^4 CFU/ml Escherichia coli ATCC 25922 after 22 hrs by serial microdilution method; type: functional; conditions: ATCC 25922, 22 h
Salmonella enterica [11] = assay: Antimicrobial activity against 10^4 CFU/ml Salmonella enterica ATCC 14028 after 22 hrs by serial microdilution method; type: functional; conditions: ATCC 14028, 22 h
Staphylococcus aureus [12] = assay: Antimicrobial activity against Staphylococcus aureus ATCC 25923 at 1 ug/ml after 24 hrs by agar diffusion method; type: functional; conditions: ATCC 25923, 24 h, read-out: DIZ
Pseudomonas aeruginosa [13] = assay: Antimicrobial activity against 10^7 CFU/ml Pseudomonas aeruginosa ATCC 9027 after 22 hrs by serial microdilution method; type: functional; conditions: ATCC 9027, 22 h
RPMI-8226 = assay: Cytotoxicity against human RPMI8226 cells after 72 hrs by MTT assay; type: cell-based; conditions: RPMI-8226, 72 h
[14] = Cytotoxicity against mouse LMTK cells after 72 hrs by MTT assay; type: cell-based; conditions: L-M(TK-)
Staphylococcus aureus [15] = assay: Antimicrobial activity against 10^7 CFU/ml Staphylococcus aureus ATCC 25923 after 22 hrs by serial microdilution method; type: functional; conditions: ATCC 25923, 22 h
Candida albicans [16] = assay: Antimicrobial activity against Candida albicans ATCC 32354 at 1 ug/ml after 24 hrs by agar diffusion method; type: functional; conditions: ATCC 32354, 24 h, read-out: DIZ
Pseudomonas aeruginosa [17] = assay: Antimicrobial activity against Pseudomonas aeruginosa ATCC 9027 at 1 ug/ml after 24 hrs by agar diffusion method; type: functional; conditions: ATCC 9027, 24 h, read-out: DIZ
Candida albicans [18] = assay: Antimicrobial activity against 10^4 CFU/ml Candida albicans ATCC 32354 after 22 hrs by serial microdilution method; type: functional; conditions: ATCC 32354, 22 h
Staphylococcus aureus [19] = assay: Antimicrobial activity against 10^4 CFU/ml Staphylococcus aureus ATCC 25923 after 22 hrs by serial microdilution method; type: functional; conditions: ATCC 25923, 22 h
Staphylococcus aureus [20] = assay: Antimicrobial activity against Staphylococcus aureus ATCC 25923 at 0.1 ug/ml after 24 hrs by agar diffusion method; type: functional; conditions: ATCC 25923, 24 h, read-out: DIZ
Escherichia coli [21] = assay: Antimicrobial activity against Escherichia coli ATCC 25922 at 0.1 ug/ml after 24 hrs by agar diffusion method; type: functional; conditions: ATCC 25922, 24 h, read-out: DIZ
Pseudomonas aeruginosa [22] = assay: Antimicrobial activity against Pseudomonas aeruginosa ATCC 9027 at 0.1 ug/ml after 24 hrs by agar diffusion method; type: functional; conditions: ATCC 9027, 24 h, read-out: DIZ
Salmonella enterica [23] = assay: Antimicrobial activity against Salmonella enterica ATCC 14028 at 0.1 ug/ml after 24 hrs by agar diffusion method; type: functional; conditions: ATCC 14028, 24 h, read-out: DIZ
Candida albicans [24] = assay: Antimicrobial activity against Candida albicans ATCC 32354 at 0.1 ug/ml after 24 hrs by agar diffusion method; type: functional; conditions: ATCC 32354, 24 h, read-out: DIZ
Bacillus subtilis [25] = assay: Antimicrobial activity against Bacillus subtilis ATCC 6633 at 0.1 ug/ml after 24 hrs by agar diffusion method; type: functional; conditions: ATCC 6633, 24 h, read-out: DIZ

SMILES | zone of inhibition at 1 µg/mL (Escherichia coli [1]) [mm] | zone of inhibition at 1 µg/mL (Bacillus subtilis [2]) [mm] | zone of inhibition at 1 µg/mL (Salmonella enterica [3]) [mm] | MBC (Escherichia coli [4]) [µg/mL] | MIC (Escherichia coli [4]) [µg/mL] | MBC (Salmonella enterica [5]) [µg/mL] | MIC (Salmonella enterica [5]) [µg/mL] | MBC (Bacillus subtilis [6]) [µg/mL] | MIC (Bacillus subtilis [6]) [µg/mL] | IC50 (MEF) [µg/mL] | MBC (Pseudomonas aeruginosa [7]) [µg/mL] | MIC (Pseudomonas aeruginosa [7]) [µg/mL] | MBC (Candida albicans [8]) [µg/mL] | MIC (Candida albicans [8]) [µg/mL] | zone of inhibition at 0.1 µg/mL (Staphylococcus aureus [20]) [mm] | zone of inhibition at 0.1 µg/mL (Escherichia coli [21]) [mm] | zone of inhibition at 0.1 µg/mL (Pseudomonas aeruginosa [22]) [mm] | zone of inhibition at 0.1 µg/mL (Salmonella enterica [23]) [mm] | zone of inhibition at 0.1 µg/mL (Candida albicans [24]) [mm] | zone of inhibition at 0.1 µg/mL (Bacillus subtilis [25]) [mm] | further results
CCCCCCCCCCCCCC[N+]12CC[N+](CCCCC[N+]34CC[N+](CCCCCCCCCCCCCC)(CC3)CC4)(CC1)CC2.[Br-].[Br-].[Br-].[Br-] | 7 | 7 | 7 | > 100 | 50 | > 100 | 100 | 12.5 | 12.5 | 127 | 50 | 50 | 25 | 25 | – | – | – | – | – | – | IC50 (HEK-293T): 400 µg/mL; MBC (Bacillus subtilis [9]): 50 µg/mL; MIC (Bacillus subtilis [9]): 12.5 µg/mL; MBC (Escherichia coli [10]): 50 µg/mL; MIC (Escherichia coli [10]): 25 µg/mL; MBC (Salmonella enterica [11]): > 100 µg/mL; MIC (Salmonella enterica [11]): 100 µg/mL; zone of inhibition at 1 µg/mL (Staphylococcus aureus [12]): 8 mm; MBC (Pseudomonas aeruginosa [13]): > 100 µg/mL; MIC (Pseudomonas aeruginosa [13]): > 100 µg/mL; IC50 (RPMI-8226): 252 µg/mL; IC50 [14]: 219 µg/mL; MBC (Staphylococcus aureus [15]): > 100 µg/mL; MIC (Staphylococcus aureus [15]): 50 µg/mL; zone of inhibition at 1 µg/mL (Candida albicans [16]): 0 mm; zone of inhibition at 1 µg/mL (Pseudomonas aeruginosa [17]): 6 mm; MBC (Candida albicans [18]): 25 µg/mL; MIC (Candida albicans [18]): 25 µg/mL; MBC (Staphylococcus aureus [19]): 100 µg/mL; MIC (Staphylococcus aureus [19]): 6.3 µg/mL
CCCCCCCCCCCCCCC[N+]12CC[N+](CCCCC[N+]34CC[N+](CCCCCCCCCCCCCCC)(CC3)CC4)(CC1)CC2 | – | – | – | – | – | – | – | – | – | – | – | – | – | – | 0 | 0 | 0 | 0 | 0 | 0 | –
CCCCCCCCCCCCCCCC[N+]12CC[N+](CCCCC[N+]34CC[N+](CCCCCCCCCCCCCCCC)(CC3)CC4)(CC1)CC2 | – | – | – | – | – | – | – | – | – | – | – | – | – | – | 0 | 0 | 0 | 0 | 0 | 0 | –
CCCCCCCCCCCCCCCCCC[N+]12CC[N+](CCCCC[N+]34CC[N+](CCCCCCCCCCCCCCCCCC)(CC3)CC4)(CC1)CC2 | – | – | – | – | – | – | – | – | – | – | – | – | – | – | 0 | 0 | 0 | 0 | 0 | 0 | –
CC[C@@]1(O)C(=O)OCc2c1cc1n(c2=O)Cc2cc3ccccc3nc2-1 [CAMPTOTHECIN] | – | – | – | – | – | – | – | – | – | 5.87 (≈ 16.9 µM) | – | – | – | – | – | – | – | – | – | – | IC50 (RPMI-8226): 2.05 µg/mL (≈ 5.88 µM); IC50 [14]: 11.7 µg/mL (≈ 33.6 µM)
O=C(O)c1cn(C2CC2)c2cc(N3CCNCC3)c(F)cc2c1=O [CIPROFLOXACIN] | 30 | 30 | 35 | < 0.8 | < 0.8 | < 0.8 | < 0.8 | < 0.8 | < 0.8 | – | 3.1 (≈ 9.36 µM) | 1.6 (≈ 4.83 µM) | 100 (≈ 302 µM) | 100 (≈ 302 µM) | – | – | – | – | – | – | MBC (Bacillus subtilis [9]): < 0.8 µg/mL; MIC (Bacillus subtilis [9]): < 0.8 µg/mL; MBC (Escherichia coli [10]): < 0.8 µg/mL; MIC (Escherichia coli [10]): < 0.8 µg/mL; MBC (Salmonella enterica [11]): < 0.8 µg/mL; MIC (Salmonella enterica [11]): < 0.8 µg/mL; zone of inhibition at 1 µg/mL (Staphylococcus aureus [12]): 25 mm; MBC (Pseudomonas aeruginosa [13]): 3.1 µg/mL (≈ 9.36 µM); MIC (Pseudomonas aeruginosa [13]): 1.6 µg/mL (≈ 4.83 µM); MBC (Staphylococcus aureus [15]): < 0.8 µg/mL; MIC (Staphylococcus aureus [15]): < 0.8 µg/mL; zone of inhibition at 1 µg/mL (Candida albicans [16]): 0 mm; zone of inhibition at 1 µg/mL (Pseudomonas aeruginosa [17]): 20 mm; MBC (Candida albicans [18]): > 100 µg/mL; MIC (Candida albicans [18]): > 100 µg/mL; MBC (Staphylococcus aureus [19]): < 0.8 µg/mL; MIC (Staphylococcus aureus [19]): < 0.8 µg/mL

Source: ChEMBL document CHEMBL3407338, “Synthesis and structure-activity relationship of novel 1,4-diazabicyclo[2.2.2]octane derivatives as potent antimicrobial agents” (Eur J Med Chem, 2015)
